“Also recorded” adds a separate entry of the source. Bridge positions count the residues as written; N and C are the ends. Ends that are not written are not given here. I, II: the chains in the order shown.
What was measured:
[1] = Solubility of the synthetic peptides; format: physicochemical; settings: 10% acetonitrile in water was used to dissolve
Description: It was synthesized separately. For 324822, protected linear peptide was cleaved from resin and cyclized in DMF following the above procedure. After removing the protecting groups, the peptide was isolated by RP-HPLC purification. […] 10% acetonitrile in water was used to dissolve the peptides.

[2] = system: B16F10 mouse melanoma cells; assay: CIF in vitro bioassay: contact inhibitory response of B16F10 cells to test samples; format: cell-based; settings: for CIF activity of synthesized monomer and dimer: monomer and dimer separated by RP-HPLC, each separately bioassayed; for contact inhibition activity of cyclic peptide dimer isomers: peptides A-C unprotected, D-F with one Acm-protected Cys per ring
Description: Contact Inhibitory Factor is a Structurally Novel Endogenous Cyclic Decapeptide Dimer. Determining the Structure of the CIF Molecule—Overall Approach. Identifying the molecule responsible for restoring contact inhibition of growth to melanoma cells first required production of the CIF positive culture medium from the serum free AM cell line (SFAMCM), followed by column chromatography, electrophoresis and mass spectroscopy of this culture medium. Samples obtained after each procedure were evaluated for CIF activity with an in vitro bioassay (Bioassay described herein). Identification of CIF structure evolved in three stages: (1) the CIF active conditioned medium from the AM cells (SFAMCM) contained a single decapeptide; (2) the decapeptide is head-to-tail cyclic; (3) the complete bioactive CIF molecule is a dimer composed of identical disulfide linked cyclic decapeptides. An in vitro bioassay used to monitor and guide purification involved the contact inhibitory response of B16F10 mouse melanoma cells to test samples. The latter included (1) CIF-containing medium from both the AM and revertant FF cell lines; (2) all fractions derived from the AM medium during purification; (3) the synthetic CIF peptide. Results were evaluated independently by two investigators. Samples were graded from 0 to 4, where 0 indicated no activity and 4 indicated maximum activity. Only samples graded 3 or 4 by both investigators were selected for purification.
Bioassay. Preparation of Samples. Conditioned Culture Medium (SFFFCM) and (SFAMCM). The positive control was the CIF positive conditioned culture medium from the FF cell line, SFFFCM. The negative control was DMEM 10% FBS. 3.6 ml of the sample was pipetted into a sterile 15 ml tube and heat activated at 80° C.×10 mins (minutes). After cooling to room temperature 0.4 ml FBS was added to make the FBS concentration 10%. For different volumes of conditioned culture medium the appropriate volume of FBS was added to make the final FBS concentration 10%. Both SFFFCM and SFAMCM were lyophilized and stored in desiccator jars under vacuum at 3° C.
Lyophilized Samples. To prepare the SFFFCM and the SFAMCM for the bioassay they were reconstituted with DMEM, heat activated at 80° C.×10 mins and cooled to room temperature. Sufficient volume of FBS was added to make the final FBS concentration 10%. The final volume of the sample was at least 2 ml to ensure that there was enough material for refeeding the bioassay plates.
Dilution of Samples. The samples were tested at 1:1 (undiluted), 1:2 and 1:4. The dilutions were made with DMEM 10% FBS. Higher dilutions may be used as needed. Each well contained 0.2 ml of sample, including the positive and negative controls. Each sample was done in duplicate. The wells were refed with fresh sample after 48 hrs.
Setting up the Bioassay. Using a 96 well flat bottom plate, 0.2 ml sterile water was pipetted into all outside wells. 0.2 ml 10% DMEM containing 20,000 B16F10 cells were pipetted into each well for the bioassay. Each sample was done in duplicate, including positive and negative controls. […]. The plate was placed in a 37° C., 5% CO2 incubator for approximately 4 hours to allow for cells to attach and spread. The time for attachment may vary for other cell lines. After the cells had attached and spread, the DMEM was removed and replaced with 0.2 ml of sample, positive and negative controls. The wells were observed daily and scored for CIF activity. The wells were refed after 48 hours or as needed, 0.2 ml for weekdays, 0.3 ml for weekends.
Scoring for CIF Activity. The samples were scored for CIF activity as follows:
4+=All cells are contact inhibited, flattened with an elongated fibroblast-like morphology. 3+=Not all cells are contact inhibited, elongated or fibroblast-like. There are a few scattered clusters of dividing cells. 2+=Fewer contact Inhibited cells and more clusters of dividing cells. […]

## c (Gly-Met-Met-Cys-Val-Thr-His-Cys-Asn-Gly (SEQ ID NO:1)) w/Cys-Cys bridge (cyclo(GMMCVTHCNG); disulfide 4-8 (inferred)) [compound 324822]
[1]
  solubility in 100% aqueous solution: not soluble

## dimer: synthesized CIF dimer of two identical disulfide linked head-to-tail cyclic decapeptides (SEQ ID NO:1), peak at 2068 Da (cyclo(GMMCVTHCNG); also: disulfide-linked dimer of two identical cyclic peptides, Cys not given here)
[2]
  CIF activity of synthesized monomer and dimer: strongly positive
[2]; listed as synthetic dimer
  CIF activity of synthesized monomer and dimer: CIF positive

## monomer: synthetic head-to-tail cyclic decapeptide Gly-Met-Met-Cys-Val-Thr-His-Cys-Asn-Gly (SEQ ID NO:1), peak at 1034 Da (GMMCVTHCNG; head-to-tail cyclized)
[2]
  CIF activity of synthesized monomer and dimer: CIF negative

## peptide A: two head-to-tail cyclized SEQ ID NO:1 peptides; Cys at position 8 disulfide bonded to Cys at position 8 of the second (chain 1 GMMCVTHCNG; chain 2 GMMCVTHCNG; disulfide I:8-II:8; cysteine pairing not given here; also: head-to-tail to a chain's N/C-terminus)
[2]
  contact inhibition activity of cyclic peptide dimer isomers: suitable contact inhibitors

## peptide B: two head-to-tail cyclized SEQ ID NO:1 peptides; Cys at position 4 disulfide bonded to Cys at position 4 of the second (chain 1 GMMCVTHCNG; chain 2 GMMCVTHCNG; disulfide I:4-II:4; cysteine pairing not given here; also: head-to-tail to a chain's N/C-terminus)
[2]
  contact inhibition activity of cyclic peptide dimer isomers: suitable contact inhibitors

## peptide C: two head-to-tail cyclized SEQ ID NO:1 peptides; Cys at position 8 disulfide bonded to Cys at position 4 of the second (chain 1 GMMCVTHCNG; chain 2 GMMCVTHCNG; disulfide I:8-II:4; cysteine pairing not given here; also: head-to-tail to a chain's N/C-terminus)
[2]
  contact inhibition activity of cyclic peptide dimer isomers: suitable contact inhibitors

## peptide D: SEQ ID NO:1 head to tail cyclized, attached via a disulfide bond, one Cys on each sequence acetamidomethyl (Acm) protected (chain 1 GMMCVTHCNG; chain 2 GMMCVTHCNG; disulfide (positions not given here); also: one Cys per chain Acm-protected, which not given here, head-to-tail to a chain's N/C-terminus)
[2]
  contact inhibition activity of cyclic peptide dimer isomers: did not have activity; also recorded: not effective contact inhibitors

## peptide E: SEQ ID NO:1 head to tail cyclized, attached via a disulfide bond, one Cys on each sequence acetamidomethyl (Acm) protected (chain 1 GMMCVTHCNG; chain 2 GMMCVTHCNG; disulfide (positions not given here); also: one Cys per chain Acm-protected, which not given here, head-to-tail to a chain's N/C-terminus)
[2]
  contact inhibition activity of cyclic peptide dimer isomers: did not have activity; also recorded: not effective contact inhibitors

## peptide F: SEQ ID NO:1 head to tail cyclized, attached via a disulfide bond, one Cys on each sequence acetamidomethyl (Acm) protected (chain 1 GMMCVTHCNG; chain 2 GMMCVTHCNG; disulfide (positions not given here); also: one Cys per chain Acm-protected, position not given here, head-to-tail to a chain's N/C-terminus, head-to-tail to a chain's N/C-terminus)
[2]
  contact inhibition activity of cyclic peptide dimer isomers: did not have activity; also recorded: not effective contact inhibitors

— patent US20210395311A1, “CYCLIC PEPTIDE DIMERS” (New York University, priority 2019, published 2021)
